Data as given in ChEMBL document CHEMBL4304828, “PROTAC-Mediated Degradation of Estrogen Receptor in the Treatment of Cancer” (ACS Med Chem Lett, 2019).

What was measured:
[1] = target: T1, von Hippel-Lindau disease tumor suppressor/Estrogen receptor (Homo sapiens, UniProt P03372+P40337); assay: Induction of VHL E3 ligase mediated ERalpha degradation in human MCF7 cells assessed as downregulation of ERalpha expression by cell-based immunofluorescence assay
Target sequence in this assay (P40337 whole entry, one chain of several): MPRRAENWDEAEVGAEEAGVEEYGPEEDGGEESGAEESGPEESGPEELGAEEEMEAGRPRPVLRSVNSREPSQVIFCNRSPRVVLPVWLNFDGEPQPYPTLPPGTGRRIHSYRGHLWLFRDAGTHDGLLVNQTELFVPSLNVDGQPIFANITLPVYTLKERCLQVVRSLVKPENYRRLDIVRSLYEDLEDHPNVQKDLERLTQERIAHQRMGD

[2] = target: T1, von Hippel-Lindau disease tumor suppressor/Estrogen receptor; assay: Induction of VHL E3 ligase mediated ERalpha degradation in human MCF7 cells at 0.3 uM by cell-based immunofluorescence assay
Target sequence in this assay (P40337 whole entry, looked up, one chain of several): as the sequence (P40337 whole entry, one chain of several) above

[3] = target: T2, Estrogen receptor (Homo sapiens, UniProt P03372); assay: Displacement of fluorescent ligand from human recombinant GST-tagged ER-alpha ligand binding domain (307 to 554 residues) incubated for 15 mins by TR-FRET based competitive assay
T2 sequence (P03372 whole entry): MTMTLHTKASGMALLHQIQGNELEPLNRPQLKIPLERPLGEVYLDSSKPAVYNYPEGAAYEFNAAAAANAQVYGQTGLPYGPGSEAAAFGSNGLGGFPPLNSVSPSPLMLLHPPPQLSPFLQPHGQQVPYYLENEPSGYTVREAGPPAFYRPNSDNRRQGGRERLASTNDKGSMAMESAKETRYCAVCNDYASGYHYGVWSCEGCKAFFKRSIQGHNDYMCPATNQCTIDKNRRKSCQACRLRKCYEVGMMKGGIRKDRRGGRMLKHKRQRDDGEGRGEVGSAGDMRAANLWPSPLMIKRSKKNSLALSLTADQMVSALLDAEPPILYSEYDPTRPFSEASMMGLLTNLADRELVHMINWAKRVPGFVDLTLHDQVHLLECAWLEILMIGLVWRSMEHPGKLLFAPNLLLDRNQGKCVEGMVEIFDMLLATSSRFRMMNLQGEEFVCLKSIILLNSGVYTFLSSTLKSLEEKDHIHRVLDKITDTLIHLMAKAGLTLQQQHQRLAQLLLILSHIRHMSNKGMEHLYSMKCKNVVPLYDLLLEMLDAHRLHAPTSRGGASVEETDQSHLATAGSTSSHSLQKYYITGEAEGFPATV

| SMILES | IC50 [1] [nM] | Activity [2] [%] | IC50 [3] [nM] |
| --- | --- | --- | --- |
| Cc1ncsc1-c1ccc(CNC(=O)[C@@H]2C[C@@H](O)CN2C(=O)[C@@H](NC(=O)COCCOCCC(F)(F)CCOc2cc(F)c([C@@H]3c4[nH]c5ccccc5c4C[C@@H](C)N3CC(C)(C)F)c(F)c2)C(C)(C)C)cc1 | 0.8 | > 90 |  |
| Cc1ncsc1-c1ccc([C@H](C)NC(=O)[C@@H]2C[C@@H](O)CN2C(=O)[C@@H](NC(=O)COCCOCCOCCOc2cc(F)c([C@@H]3c4[nH]c5ccccc5c4C[C@@H](C)N3CC(C)(C)F)c(F)c2)C(C)(C)C)cc1 | 0.3 | > 90 |  |
| Cc1ncsc1-c1ccc(CNC(=O)[C@@H]2C[C@@H](O)CN2C(=O)[C@@H](NC(=O)COCCCOCCOc2cc(F)c([C@@H]3c4[nH]c5ccccc5c4C[C@@H](C)N3CC(C)(C)F)c(F)c2)C(C)(C)C)cc1 | 0.4 | > 90 |  |
| C[C@]12CC[C@@H]3c4ccc(O)cc4C[C@@H](CCCCCCCCC[S+]([O-])CCCC(F)(F)C(F)(F)F)[C@H]3[C@@H]1CC[C@@H]2O (some centres not stated) |  | 100 |  |
| Cc1ncsc1-c1ccc(CNC(=O)[C@@H]2C[C@@H](O)CN2C(=O)[C@@H](NC(=O)COCCCOCCCOc2cc(F)c([C@@H]3c4[nH]c5ccccc5c4C[C@@H](C)N3CC(C)(C)F)c(F)c2)C(C)(C)C)cc1 | 0.3 to 0.4 | > 90 |  |
| Cc1ncsc1-c1ccc([C@H](C)NC(=O)[C@@H]2C[C@@H](O)CN2C(=O)[C@@H](NC(=O)COCCOCCCCCOc2cc(F)c([C@@H]3c4[nH]c5ccccc5c4C[C@@H](C)N3CC(C)(C)F)c(F)c2)C(C)(C)C)cc1 | 0.6 | > 90 | 0.5 |
